Test results published in patent US12258424B2, “Polypeptides and compositions comprising the same” (priority 2020, dated 2025).
Several values for one entry are separate records, joined by “and”; a condition that tells them apart may be missing. Identical values can stand only once. Residues, ends and D or L forms follow the SMILES beside them.

Legend:
[1] = test system: CD8+ T cells in CT26 tumor tissues; assay: IHC staining of CD8+ T cells in CT26 tumor tissues; type: in vivo, mouse
Protocol: Immunohistochemistry (IHC) Staining. Tumor tissues were fixed in 10% formalin, embedded in paraffin, sectioned, and mounted on glass slides by Truman Medical Centers Anatomic Pathology Core (Kansas City, MO). The slides were heated in Tris buffer (pH 9.0) for 45 min to recover antigen. After deparaffinization and rehydration, the sections were stained with the anti-mouse CD8 alpha antibody (Abcam, ab209775) overnight at 4° C. The slides were incubated with a biotinylated goat anti-rabbit secondary antibody, followed by the DAB chromogen mixture. Four sections (2 male and 2 female) were imaged in each group. For each section, 3 regions were randomly selected for imaging.

[2] = test system: 4T1 cancer cell; type: cell-based, mouse
[3] = biological target: human PD-L1/CD80 interaction (Homo sapiens, UniProt Q9NZQ7); assay: Blockade of the CD80/PD-L1 interaction; type: binding; settings: at 10 μM, FIG. 8a
Chain of human PD-L1/CD80 interaction (Q9NZQ7 19-238 limits assumed): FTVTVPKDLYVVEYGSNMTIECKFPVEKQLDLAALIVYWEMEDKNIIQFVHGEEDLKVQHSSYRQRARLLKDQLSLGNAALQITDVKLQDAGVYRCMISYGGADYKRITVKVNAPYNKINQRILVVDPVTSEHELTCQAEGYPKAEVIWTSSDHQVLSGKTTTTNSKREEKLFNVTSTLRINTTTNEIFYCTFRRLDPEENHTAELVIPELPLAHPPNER

[4] = test system: DU145 cancer cell; type: cell-based, human
Protocol: (§1) Ninety-six-well plates were coated with 100 ng of PD-L1 protein (G&P Biosciences, human PD-L1 ECD, cat #FCL0784B. mouse PD-L1, cat #FCL3502B) and later blocked with 2% BSA for 2 hours at room temperature. Various concentrations of peptides were loaded into the wells and incubated for 1 hour at room temperature. […] Streptavidin-HRP (R & D systems) and chromogenic substrate were added into the wells. OD450 was then recorded and referenced to OD540.
The blocking efficiency of the anti-PD-L1 peptides at 10 μM (FIG. 2c). […] The IC50 of each peptide was also determined using recombinant human PD-L1 protein and DU-145 cancer cells.

[5] = biological target: mPD-L1 (Mus musculus, UniProt Q9EP73); assay: Blockade of the mouse PD-1/PD-L1 interaction, mouse PD-L1 protein; type: binding; design: purchased G&P Biosciences FCL3502B (PD-L1)
Chain of mPD-L1 (Q9EP73 19-239 limits assumed): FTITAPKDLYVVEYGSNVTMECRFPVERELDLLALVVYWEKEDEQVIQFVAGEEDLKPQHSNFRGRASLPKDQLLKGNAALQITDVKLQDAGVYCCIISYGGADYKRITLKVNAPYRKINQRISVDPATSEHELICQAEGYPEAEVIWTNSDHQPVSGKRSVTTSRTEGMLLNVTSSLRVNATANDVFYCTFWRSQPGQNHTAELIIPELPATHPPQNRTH
Protocol: as §1

[6] = test system: CT26 tumor-bearing Balb/C mice; assay: Survival of CT26 tumor-bearing Balb/C mice; type: in vivo, mouse
Excerpt: Animal Study. The animal protocol was approved by the University of Missouri-Kansas City, Institutional Animal Care and Use Committee (IACUC). Five-week old male and female Balb/c mice were purchased from Charles Rivers Laboratories (Wilmington, Mass.) and housed in a temperature and humidity controlled room on a 12-hour light-dark cycle. Approximately 5×10^5 CT26 cells were subcutaneously injected into the right flank. The mice were randomly divided into five different groups (10 mice/group, 50% female, 50% male). The mice were intraperitoneally injected with 2 mg/kg peptide daily when the tumor size reached 50-100 mm^3. The anti-mouse PD-L1 antibody (10F.9G2, BioXcell) was administrated as a positive control at a dose of 10 mg/kg every two days. The tumor size was assessed with a caliper and calculated with the formula 0.5×length×width^2. ELISA kits of PD-L1 (Cat #DY1019-05), IFNγ (Cat #DY485-05), and IL-6 (Cat #DY406-05) were used to measure the expressions of PD-L1, IFNγ, and IL-6, respectively, in tumors as per the company's instructions (R & D Systems, Minneapolis, MN).
In this Example, mice were intraperitoneally injected with the CLP002 (SEQ ID NO:2) and CLP003 (SEQ ID NO:3) peptides daily or the anti-mouse PD-L1 antibody every other day from day 4 to day 17 (see survival curves in FIG. 7a). Specifically, CT26 tumor-bearing Balb/C mice (n=10, 5 male and 5 female) were intraperitoneally injected with the anti-PD-L1 peptides (2 mg/Kg) daily and the anti-mouse PD-L1 antibody (10 mg/Kg) every other day from day 4 to day 17. GraphPad Prism 7 software (San Diego, Calif.) was used for statistical analysis. Comparison of two survival curves were conducted using the Gehan-Breslow-Wilcoxon test. […] By contrast, only 20% of the mice in the CLP002 (SEQ ID NO:2) group were dead by day 17.

[7] = test system: 3D tumor spheroids of MDA-MB-231 cells; assay: 3D tumor spheroid penetration assay; type: cell-based, human; settings: Cy5-labeled, 2 and 6 hours
Protocol: 3D Tumor Spheroid Penetration Assay. 3D spheroids of MDA-MB-231 cells were generated using the Spheroid Formation Extracellular Matrix (ECM) as per the company's protocol (Amsbio, Cambridge, MA). Briefly, 3,000 tumor cells were mixed with 50 μL Spheroid Formation ECM and loaded into a Corning™ 96-well Ultra-low Attachment Treated Spheroid Microplate (Corning, Pittsburgh, PA). The plate was centrifuged at 200 g for 3 min at 4° C. The cells were then incubated at 37° C. until the diameter reached approximately 700 μm. The Cy5-labeled CLP002 peptide and anti-PD-L1 antibody were incubated with the spheroids for 2 or 6 hours. After washing, penetration of the peptide and antibody inside the tumor spheroids was determined using confocal microscopy.

CC(C)C[C@H](NC(=O)[C@H](CC(N)=O)NC(=O)[C@H](Cc1c[nH]c2ccccc12)NC(=O)[C@@H](NC(=O)[C@H](Cc1ccc(O)cc1)NC(=O)[C@H](Cc1ccc(O)cc1)NC(=O)[C@H](CO)NC(=O)[C@H](CCCNC(=N)N)NC(=O)[C@H](Cc1c[nH]cn1)NC(=O)[C@@H](N)Cc1c[nH]c2ccccc12)[C@@H](C)O)C(=O)N[C@@H](CC(N)=O)C(=O)N[C@H](C(=O)O)[C@@H](C)O [CLP002] (H-WHRSYYTWNLNT-OH; N-terminus and C-terminus assumed)
Density of CD8+ T cells in tumor tissues [1]: significantly increased | Location of CD8+ T cells in the tumor [1]: penetration of CD8^+ T cells into the tumor tissue | Blocking Efficiency (%) ([2]; 4T1 cancer cell): 61% | IC50 ([2]; 2 h): 2.44 µM | Blocking efficiency against CD80/PD-L1 interaction [3]: ~48% | IC50 ([4]; 2 h): 1.43 µM | Blocking Efficiency (%) ([4]; DU-145 cancer cells): 80% | Blocking efficiency against mouse PD-1/PD-L1 interaction ([5]; at 10 μM, FIG. 2f): 71% | Blocking Efficiency (%) ([5]; mouse PD-L1 protein): 71% and 68% | IC50 ([5]; mouse PD-L1 protein): 1.91 µM | Tumor growth in the survival study ([6]; Example 7, individual growth curves): inhibited tumor growth | Mice showing a response to treatment (in words) ([6]; n=10): Eight mice showed a response | Mice dead by day 17 ([6]; n=10, saline group 90%): 20% | Survival of tumor-bearing mice ([6]; treatment from day 4 to day 17): improved the survival | Tumor spheroid penetration (in words) ([7]; confocal microscopy): better tumor penetration than the antibody | Depth of penetration from the periphery of the spheroids ([7]; spheroids ~700 μm): approximately 250 μm
